Assays:
Bcl-2/Bax ratio = assay: Western blot, whole cell and mitochondrial fraction; assay type: in vivo, mice; conditions: 20 mg/kg ip 10 min after CCI
Experimental: Three sets of experiments were performed. The first set was to investigate the protective effects of salidroside. All animals were randomized into 1 of 3 groups (sham injury, CCI + vehicle, CCI + SALD 20). Surgery/injury, behavioral testing, and tissue analyses were performed by different individuals. Behavioral testing and tissue analyses were performed by individuals blinded to the treatment group. Salidroside (Cayman Chemical, Ann Arbor, MI, USA) dissolved in normal saline (0.25 mL) or a corresponding volume of vehicle (saline) was administered intraperitoneally 10 min following injury. Testing after injury was completed as follows: 1) behavioral testing at days 1, 4, 7, 14, 21, and 28 (n = 8–10 mice/group); 2) cresyl violet staining at day 28 (n = 9 mice/group); 3) histology, determination of brain water content, and western blot analysis at day 1 or 3 (n = 5–6 mice/group). To determine the optimal dose of salidroside, a pilot study was performed using 2 different doses (20 and 50 mg/kg) administered 10 min after injury, and neurological deficits and tissue damage were evaluated as the main outcomes. […] Protein concentration was determined by Bradford reagent spectrophotometrically at A595. […] The relative intensity of protein signals was normalized to the corresponding β-actin intensity and was quantified by densitometric analysis with the use of Image J software. […]

[1] = Metabolic characteristics: serum BUN, CRE, ALT; assay type: in vivo, mice; conditions: for BUN / CRE: mean ± SEM, n = 4–5 mice/group
Experimental: Three sets of experiments were performed. The first set was to investigate the protective effects of salidroside. All animals were randomized into 1 of 3 groups (sham injury, CCI + vehicle, CCI + SALD 20). Surgery/injury, behavioral testing, and tissue analyses were performed by different individuals. Behavioral testing and tissue analyses were performed by individuals blinded to the treatment group. Salidroside (Cayman Chemical, Ann Arbor, MI, USA) dissolved in normal saline (0.25 mL) or a corresponding volume of vehicle (saline) was administered intraperitoneally 10 min following injury. Testing after injury was completed as follows: 1) behavioral testing at days 1, 4, 7, 14, 21, and 28 (n = 8–10 mice/group); 2) cresyl violet staining at day 28 (n = 9 mice/group); 3) histology, determination of brain water content, and western blot analysis at day 1 or 3 (n = 5–6 mice/group). To determine the optimal dose of salidroside, a pilot study was performed using 2 different doses (20 and 50 mg/kg) administered 10 min after injury, and neurological deficits and tissue damage were evaluated as the main outcomes. […] The second set of experiment was to assess the effect of the inhibition of PI3K/Akt with the specific PI3K inhibitor, LY294002 (Cell Signaling Technology, Danvers, MA, USA), on salidroside effects. Animals were randomized into 4 groups. Mice received either: 1) icv pretreatment of LY294002 followed by SALD 20 after CCI (S20Y group); or 2) icv pretreatment of saline (vehicle control) followed by SALD 20 after CCI (S20V group). 3) Mice were infused icv with saline and were subjected to sham injury. 4) Mice were infused icv with LY294002 and were subjected to sham injury. Testing after injury was completed as follows: 1) cresyl violet staining at day 28 (n = 6 mice/group); 2) western blot analysis at day 1 (n = 6 mice/group). The third set of experiment was performed to examine the neuroprotective time window afforded by salidroside. Mice received intraperitoneal SALD 20 or vehicle (saline) at 3 or 6 h following CCI and were sacrificed 1 day later for FJB staining and western blot analysis (n = 6 mice/group).
Following terminal anesthesia, venous blood was collected via direct right atrial puncture. The obtained blood was centrifuged (3500 rpm for 5 min), and the serum was stored at −20°C until analysis. A chemistry analyzer (Synchron Clinical System LX20; Beckman Coulter, Fullerton, CA, USA) was used to measure serum BUN and CRE to assess renal function, and ALT to assess liver function.

## OC[C@H]1O[C@@H](OCCc2ccc(O)cc2)[C@H](O)[C@@H](O)[C@@H]1O [SALD, salidroside]
Bcl-2/Bax ratio; day 1, P<0.05
  mitochondrial Bcl-2/Bax ratio, % of the level in vehicle injured brains: 150.6%
Bcl-2/Bax ratio; whole cell level
  whole cell Bcl-2/Bax ratio, slight increase versus vehicle: did not reach statistical significance
[1]; 20 mg/kg
  plasma concentrations of BUN, CRE, ALT (effect of treatment): did not alter
[1]; SALD 20 mg/kg
  BUN: 23.2 ± 2.49 mg/dL
  CRE: 0.17 ± 0.01 mg/dL
[1]; SALD 50 mg/kg
  BUN: 28.06 ± 4.5 mg/dL
  CRE: 0.16 ± 0.04 mg/dL
